Structures are written as SMILES. “Also recorded” adds a separate entry of the source.

The test system of assay [1] is MIAPACA2 cells. As to the kind of experiment: Pulse-chase study with tyrosine-derived intermediates after two weeks of 13C9-Tyr labelling. Type of assay: cell-based, human. Conditions: for effect on intracellular levels of the other Tyr-derived metabolites: exogenous unlabelled metabolite; for increase of the fraction of unlabelled (non-labelled) CoQ10: unlabelled intermediate added in the presence of 13C9-Tyr, 21% O2. The protocol:
Using the same experimental scheme, the incorporation of Tyr-derived metabolites into CoQ10 was measured. […] For metabolomics, briefly, cells were washed in 4° C. 0.9% saline and metabolites were extracted with 46% methanol:23% H2O:[…] chloroform that contained a labelled amino acid standard mix (MSK-A2-1.2, Cambridge Isotope Laboratories, Inc.). Enzymatic assay samples were extracted using 80% methanol: 20% H2O that contained labelled amino acid standards. Extracts were placed into 1.5 mL Eppendorf tubes, vortexed at 4° C. for 10 min and centrifuged at 4° C. for 10 min at 17,200×g in a microcentrifuge. The aqueous phase was transferred to vials for GC-MS or Eppendorf tubes for LC-MS. Polar samples were evaporated in a […] and samples were resolved by GC-MS or LC-MS. Lipid samples were dried using a stream of N2 (for ^18O labelling studies) or air. Metabolite and lipid extracts were submitted to the […] Metabolomics Core Resource Laboratory. For polar metabolomics, the LC column was a Millipore ZIC-pHILIC (2.1×150 […], 5 μm bead size) coupled to a Dionex […] 3000 system. The column oven temperature was held at 25° C. The flow rate was 100 μL/min, and the injection volume was 1 μL. Buffer A was 10 mM ammonium carbonate in water, pH 9, and Buffer B was neat acetonitrile. The gradient profile was 80-20% B (0-30 min), 20-80% B (30-31 min), and 80-80% B (31-42 min). MS Analyses were carried out on a Thermo Q Exactive HF mass spectrometer using a heated electrospray ionization (HESI) source. The method duration was 30 min using a polarity-switching, top 5 method. The spray voltage for both positive and negative ion modes was 3.5 kV. The capillary temperature was 320° C. with a maximum spray current of 100 ρA. The full MS scan was carried out at 120,000 resolution with a scan range of 67-1000 m/z. For ^18O2 labelling experiments, full MS scans were carried out at 240,000 resolution at the same scan range. Tandem MS spectra were obtained at 15,000 resolution. All data were acquired in profile mode. Peak heights were analyzed using Xcalibur (ThermoFisher Scientific). Lipid metabolomics were acquired using a Waters CSH-C18 (2.1×100 mm, 1.7 μm) column coupled to a Dionex […] 3000 system. The column oven temperature was held at 55° C. The flow rate was 300 μL/min and the injection volume was 1 μL. Buffer A was 60:40 acetonitrile:water, 0.1% formic acid and Buffer B was 90:10 isopropanol:acetonitrile, 10 mM ammonium formate. The gradient profile was 40-43% B (0-1.25 min), 43-50% B (1.25-2 min), 50-54% B (2-11 min), 54-70% B (11-12 min), 70-99% B (12-18 min), […], 99-40% B (23-24 min), hold at 40% B (1 min). MS Analyses were carried out on a Thermo Q Exactive HF mass spectrometer using a heated electrospray ionization (HESI) source. The method duration was 20 minutes using a polarity-switching, top 10 method. The spray voltage for both positive and negative ion modes was 3.5 kV. The capillary temperature was 320° C. with a maximum spray current of 100 ρA. The full MS scan was carried out at 120,000 resolution with a scan range of 350-2000 m/z. For ^18O2 labelling experiments, full MS scan was carried out at 240,000 resolution at the same scan range. Tandem MS spectra were obtained at 15,000 resolution. All data were acquired in profile mode. Peak heights were analyzed using Xcalibur (ThermoFisher Scientific).

The subject of assay [2] is MIAPACA2 cells. Put plainly: 3D growth assay. Type of assay: cell-based, human. Conditions: HPDL KO cells, 1 mM, three days. The protocol: For the 3D growth assay, approximately 2,500 cells were seeded into a low-attachment 96-well plate containing DMEM+10% diaFBS and 5% Matrigel. Cells were grown for three days at 37° C. and 5% CO2. Cells were also treated or without 1 mM 4-HMA or 4-HB for the duration of the assay. To measure 3D growth with the CyQUANT Cell Proliferation Assay kit, plates were frozen at −80° C., thawed at room temperature, and equal volumes of 2× CyQUANT reagent+lysis buffer was added to the wells. As a control, wells containing media+5% Matrigel and no cells were used as blanks. CyQUANT measurements were performed as described in the manufacturer's instructions.

Assay [3] relates to MIAPACA2 cells. Put plainly: Oxygen consumption rate (OCR) in spheroids. The conditions noted are these: HPDL KO cells, 1 mM, 3D conditions. It is filed as cell-based, human. The protocol: For measurement of oxygen consumption in spheroids, oxygen consumption rate (OCR) was measured with an XF96 analyzer (Seahorse Bioscience) and the Seahorse XFe96 Spheroid FluxPak, as described by the manufacturer's protocol. Spheroids were generated by seeding 40,000 cells per well into a low-attachment U-bottom 96-well plate with DMEM+10% diaFBS and 5% Matrigel. If indicated, spheroids were treated with or without 1 mM 4-HMA or 4-HB for the duration of the assay. Spheroids were allowed to form for three days before measuring oxygen consumption measurement. Each spheroid was transferred to a Spheroid FluxPak plate containing DMEM (25 mM glucose, 4 mM glutamine, and without pyruvate, phenol red and bicarbonate), and allowed to equilibrate for 1 hr at 37° C., no CO2. OCR measurements were normalized to size of the spheroid.

Assay [4] deals with HPDL. As to the kind of experiment: HPDL levels in the cell after addition of HPDL products. It is filed as cell-based.
Assay [5] concerns the target T1, HPDL (Homo sapiens, UniProt Q96IR7).
T1 construct: made in house; host or cells: MIAPACA2 sgHPDL #3 (HPDL-knockout) cells stably infected with the pLenti6.2 lentiviral vector; anti-FLAG M2 magnetic bead immunoprecipitation
T1 sequence (Q96IR7 1-371): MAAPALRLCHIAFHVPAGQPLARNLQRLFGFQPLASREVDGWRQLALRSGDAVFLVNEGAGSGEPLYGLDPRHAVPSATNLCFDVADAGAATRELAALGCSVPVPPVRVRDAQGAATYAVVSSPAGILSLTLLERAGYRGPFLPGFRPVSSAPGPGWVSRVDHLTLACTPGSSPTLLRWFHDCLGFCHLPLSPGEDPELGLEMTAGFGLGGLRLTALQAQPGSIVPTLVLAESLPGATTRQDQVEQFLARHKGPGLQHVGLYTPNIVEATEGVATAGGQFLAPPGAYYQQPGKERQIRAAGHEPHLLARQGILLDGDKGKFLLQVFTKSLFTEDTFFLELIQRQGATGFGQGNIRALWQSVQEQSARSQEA
As to the kind of experiment: HPDL enzymatic assay with immunopurified HPDL-FLAG. Type of assay: biochemical. The conditions noted are these: 400 μM substrate, 37° C., 21% 16O2, 1 hour. How it is done:
Homogentisate, the product of HPD, was not produced in any of the present enzymatic assays. […] This directly confirmed that HPDL activity, and not a potential HPDL-interacting enzyme, was needed for 4-HMA synthesis.
For the HPDL enzymatic assay, cell lysates were generated in TNE lysis buffer (50 mM Tris-HCl pH 8.0, 150 mM NaCl, 2 mM EDTA, and 1% NP-40, supplemented with protease (ThermoFisher Scientific) and phosphatase (10 mM NaF, 10 mM β-glycerophosphate, and 10 mM sodium pyrophosphate) inhibitors. HPDL-FLAG was immunoprecipitated using anti-FLAG M2 magnetic beads (Millipore Sigma, M8823). Cell lysates were incubated with anti-FLAG M2 magnetic beads for 1 hour at 4° C. on a rotating platform. Beads were washed four times with TNE lysis buffer, and then 10% and 90% of the immunopurified protein was used for immunoblotting or enzymatic assay, respectively. […] At the end of the assay, 10 uL of assay buffer was retrieved and prepared for analysis by gas chromatography-mass spectrometry (GC-MS, see Metabolomics section).

In a further assay the test system is human cells. Put plainly: 18O2-GASSP labelling of human cells, untargeted polar metabolomics, with or without IOX1. Type of assay: cell-based. Conditions: 18O labelling of the metabolite in cells treated with IOX1 (dioxygenase inhibitor), 24 hours. The protocol: To map the molecular fate of O2 in metabolic pathways in living cells, GASSP was used to carry out ^18O2 labelling in cell lines of different tissue origins at ^18O2 concentrations that represented physiological (3%), hypoxic (1%), and severely hypoxic (0.2%) oxygen tensions found in tissues and tumours^7. At the end of each run, polar metabolites were extracted and untargeted polar metabolomics using liquid chromatography-high resolution mass spectrometry (LC-MS) were carried out to identify metabolites labeled with ^18O.
A list of unique features identified by untargeted metabolomics that were >0.25% (natural abundance of ^18O is 0.2%) labelled by ^18O atoms in each cell line at each oxygen tension was generated. In addition, background signal was controlled by requiring that ^18O labeled peaks had to have a signal that was two-fold greater than naturally occurring isotopes found in non-labelled (^16O) metabolite cell extracts. To determine the proportion of unique ^18O labelled features that were due to dioxygenase activity, cells were treated with a pan-dioxygenase inhibitor (IOX1) at concentrations that inhibit iron-dependent dioxygenases, such as the HIF1α prolyl hydroxylases (FIGS. 5E-5F) and identified ^18O labelled polar metabolites. This list of ^18O metabolites was generated by identifying all features in the unlabelled samples, filtering these features against blank samples to remove background peaks, and calculating the fractional ^18O labelling with the assumption that a metabolite would have no more than three oxygen atoms labelled, followed by manual curation of labelled features (FIG. 1B and FIG. 5G). […] These ^18O-labelled features were termed the oxy-metabolome.
To determine the identities of the labeled metabolites, the list of ^18O labelled features was annotated to their corresponding unlabelled metabolites using retention time matching, tandem mass spectrometry (MS2) fragmentation patterns, and database searching.
All steps involved in setting up labelling with ^18O2 were performed at room temperature and inside a chemical fume hood. The procedure may vary depending on the type and number of tissue culture plates in the chamber and the amount of media in the plates. Users must test the system by using ^16O2:CO2:N2 or other unlabelled gases to optimize conditions for their needs and avoid consumption of costly labelled gases. Cells were treated with or without 5 μM MG132, 500 μM IOX1, 250 μM DFO, or 70 μM ascorbate, before placing tissue culture plates into the modular incubator chamber (MIC) containing a wireless oxygen sensor and a 15 cm dish of water to maintain humidity. Next, the clamps were closed to form an air-tight seal between the lid and platform of the MIC. […] N2 flushing was repeated for a total of three times, or until the sensor in the chamber stabilized at 0% O2 for 10 minutes.

As for `O=C(O)c1ccc(O)cc1` [Metabolite 4-HB, 4-hydroxybenzoic acid], in the assay on MIAPACA2 cells [1] (24 hours), the “effect on intracellular levels of the other Tyr-derived metabolites” value was “did not change Tyr, 4-HPPA, 4-HPLA, and 4-HMA levels”; the “increase of the fraction of unlabelled (non-labelled) CoQ10” value turned out to be 30%. Also, the 3D growth result with MIAPACA2 cells [2] is recorded as “increased”. For the same molecule, in the assay with MIAPACA2 cells [3], the OCR result is listed as “increased”. Besides, the “HPDL levels in the cell” value in the assay with HPDL [4] is listed as “reduce”.

Consider `O=C(O)C(=O)Cc1ccc(O)cc1` [Metabolite 4-HPPA, 4-hydroxyphenylpyruvate], for which the “increase of the fraction of unlabelled (non-labelled) CoQ10” value in the assay with MIAPACA2 cells [1] (24 hours) turned out to be 30%. In addition, at HPDL [5], the “4-HMA production by HPDL from the substrate” value is reported as “resulted in the generation of 4-HMA; also recorded: synthesized 4-HMA”.

For `O=C(O)C(O)c1ccc(O)cc1` (racemic) [Metabolite 4-HMA, 2-hydroxy-2-(4-hydroxyphenyl)acetic acid], the “IOX1 Sensitive (Yes/No)” value with human cells is reported as “Yes”. In the assay on MIAPACA2 cells [1], the “incorporation into CoQ10” value is on record as “incorporated into CoQ10”. In the assay with MIAPACA2 cells [1] (exogenous metabolite, 24 hours), the “effect on 4-HB levels” value is “minimal effect”. Also, in the assay on MIAPACA2 cells [1] (24 hours), the “effect on intracellular levels of the other Tyr-derived metabolites” value was “had no effect on Tyr, 4-HPPA and 4-HPLA levels”; the “increase of the fraction of unlabelled (non-labelled) CoQ10” value was 30%. In addition, in the assay on MIAPACA2 cells [2], the 3D growth entry was “increased”. For the same molecule, in the assay with MIAPACA2 cells [3], the OCR entry is listed as “increased”. Moreover, in the assay on HPDL [4], the “HPDL levels in the cell” value is reported as “reduce”.

`N[C@@H](Cc1ccc(O)cc1)C(=O)O` [Tyr, tyrosine]: in the assay with human cells, the “IOX1 Sensitive (Yes/No)” value is listed as “Yes”. Also, the “4-HMA production by HPDL from the substrate” value at HPDL [5] is listed as “not”.

For the origin of these results see patent US12558329B2 (New York University, priority 2021, dated 2026).
